pEC50, pKd: −log10 of the molar value. Where a SMILES comes first, the peptide text is derived from it. The star is where a group is joined. Succinyl(4-O-cholesteryl) = CC(C)CCC[C@@H](C)[C@H]1CC[C@H]2[C@@H]3CC=C4C[C@@H](OC(=O)CCC(=O)*)CC[C@]4(C)[C@H]3CC[C@]12C

One assay concerns the target T1, hPIV-N51 (139-189) (Human parainfluenza 3 virus, UniProt P06828).
T1 construct: hPIV-N51 (139-189)
The experiment in a line: SPR affinity to hPIV-N51 coupled on CM5 chip. The format is binding. As for the experimental part: hMPV and hPIV were two viruses having a typical Class I fusion protein-F protein. An F protein precursor F0 was cracked into F1 and F2 subunits. […] When the compound flowed through a chip surface, changes in an SPR signal were monitored in real time, binding and dissociation processes were recorded, and a binding rate constant (ka) and a dissociation rate constant (kd) were further obtained through kinetic analysis, thereby calculating an equilibrium dissociation constant (KD=kd/ka).
A CM5 chip with a catalog number 29149603, an amino coupling reagent kit with a catalog number BR100050, HBS-EP+Buffer (10×), sodium acetate (pH 4.0), and a 10 mM glycine-HCl buffer (pH 2.0) were all purchased from GE Health.
CM5 chip coupling: Channels 2 and 4 of the CM5 chip were activated for 7 min by using a freshly-prepared mixture of 50 mM Hydroxy succinimide (NHS) and 200 mM 1-(3-Dimethylaminopropyl)-3-ethylcarbodiimide (EDC) according to 1:1; and then, hMPV-N46 or hPIV-N51 was diluted and dissolved with sodium acetate with 4.0 pH to a concentration of 30 μM, with a flow rate of 10 μl/min and time of 600 s. An experimental buffer was HBS-EP+buffer (1×). Finally, the chip was blocked with 1 M ethanolamine. The instrument was set to a temperature of 25° C.
Affinity detection: the buffer used in the experiment was HBS-EP+buffer (1×), and a multi-cycle dynamic mode was used. Channels 1 and 3 of the chip served as blank reference channels; polypeptides to be detected sequentially flowed through Channels 2 and 4 at concentrations of 0 μM, 0.04 µM, 0.12 µM, 0.37 μM, 1.11 µM, 3.33 µM, 10 µM, and 30 μM; the flow rate was 30 μl/min, binding was performed for 180 s, and dissociation was performed for 120 s. Finally, the chip was regenerated by injecting 10 mM glycine (pH 2.0). The instrument was set to a temperature of 25° C.

Another assay deals with hMPV A2. The format is cell-based. The note with it: Vero cells, plaque reduction. As for the experimental part:
(§1) African green monkey kidney cells (Vero) were sourced from the ATCC, with catalog number CCL-81. The cells were cultured in a DMEM culture solution in which 10% fetal bovine serum, 1% non-essential amino acids, 1% sodium pyruvate, 1% L-glutamine, 100 U/ml penicillin, and 100 μg/ml streptomycin were added.
(§2) A hMPV plaque experiment culture medium consisted of an Opti-MEM culture solution added with 1% non-essential amino acids, 100 U/mL penicillin, and 100 μg/mL streptomycin.
(§3) hMPV virus strains A2 and B1 were constructed by WuXi App Tec.
(§4) This study used a plaque reduction experiment to detect the in-vitro activity of a test sample against the hMPV virus strains A2 and B1.
(§5) The test sample and an experimental system were tested at 8 concentrations in duplicated wells. The Vero cells were digested with trypsin and then diluted to a concentration of 400,000 cells per milliliter by using a cell culture solution containing 2% serum. The diluted cells were added to a 96-well cell test board, with 100 μL per well, corresponding to 40000 cells per well. The cells were cultured overnight in a 37° C. incubator with 5% CO2.
(§6) On the second day, the test sample was diluted in an experimental culture medium at a fold ratio. The sample diluted at a fold ratio and an equal volume of virus (approximately 200 PFU per well) were well mixed and incubated at 33° C. in 5% CO2 for 1 h. Then, the culture solution in the 96-well cell test board was discarded, the sample virus mixed solution (100 μL) was added to the 96-well cell culture plate, and incubated at 37° C. in 5% CO2 for 2 hours. After 2 h, the sample virus mixed solution was discarded, 200 μL of an experiment culture medium containing the test sample with a corresponding concentration was added, and the culture solution contained 0.8% CMC and 5 μg/ml trypsin. A final concentration of DMSO in the culture solution was 0.5%. A system control antibody was directly added to the experiment culture solution containing 0.8% CMC and 5 μg/ml trypsin. A cell control (cells, without compound treatment or viral infection) and a viral control (cell infection virus, without compound treatment) were set. The cells were cultured for 1 day in the 33° C. incubator with 5% CO2.
(§7) The cells were fixed with 4% paraformaldehyde, and then permeabilization was performed with 0.5% Triton X-100. After the plate was washed with DPBS, a hMPV specific antibody (1:2000 dilution) was added and incubated at 37° C. for 1.5 h. Then, a secondary antibody (1:1000 dilution) was added and incubated at 37° C. for 1 hour. The secondary antibody was discarded, a TrueBlue solution was added, dyeing was performed for approximately 10 minutes; and the plate was washed with running water and then air-dried, and the number of spots in each well was counted by using a microplate imaging counter.
(§8) Raw data was used for analyzing the antiviral activity of the test samples. A calculation formula was shown as follows.
(§9) % inhibition rate=100−(sample value-cell control average value)/(virus control average value-cell control average value)×100
(§10) Non-linear fitting analysis was performed on the inhibition rate of the sample by using GraphPad Prism (version 10), so as to calculate an EC50 value for the sample. A fitting formula was log (inhibitor) vs. response-Variable slope (four parameters).

The subject of another assay is hMPV B1. In kind it is cell-based. The note with it: Vero cells, plaque reduction. As to the method: as §1, §2, §3, §4, §5, §6, §7, §8, §9, §10

T1 sequence (P06828 139-189): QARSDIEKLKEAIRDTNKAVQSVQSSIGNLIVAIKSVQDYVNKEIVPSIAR

Regarding `CC[C@H](C)[C@H](NC(=O)[C@H](CO)NC(=O)[C@H](C)NC(=O)[C@H](CC(=O)O)NC(=O)[C@H](Cc1ccccc1)NC(=O)[C@H](CCC(=O)O)NC(=O)[C@H](CC(=O)O)NC(=O)[C@H](Cc1c[nH]c2ccccc12)NC(C)=O)C(=O)N[C@@H](CO)C(=O)N[C@@H](CCC(N)=O)C(=O)N[C@H](C(=O)N[C@@H](CC(N)=O)C(=O)N[C@@H](CCC(=O)O)C(=O)N[C@@H](CCCCN)C(=O)N[C@H](C(=O)N[C@@H](CC(N)=O)C(=O)N[C@@H](CCC(N)=O)C(=O)N[C@@H](CO)C(=O)N[C@@H](CC(C)C)C(=O)N[C@@H](CCC(=O)O)C(=O)N[C@@H](CCC(=O)O)C(=O)N[C@H](C(=O)N[C@@H](CCCNC(=N)N)C(=O)N[C@@H](CCCCN)C(=O)N[C@@H](CO)C(=O)N[C@@H](CC(=O)O)C(=O)N[C@@H](CCC(=O)O)C(=O)N[C@@H](CC(C)C)C(=O)N[C@@H](CC(C)C)C(=O)N[C@@H](Cc1c[nH]cn1)C(=O)N[C@@H](CC(N)=O)C(=O)N[C@@H](CCC(=O)O)C(=O)N[C@@H](C)C(=O)N[C@@H](C)C(=O)N[C@@H](C)C(=O)N[C@@H](CCCCN)C(=O)N[C@@H](CCCCNC(=O)CCC(=O)O[C@H]1CC[C@@]2(C)C(=CC[C@H]3[C@@H]4CC[C@H]([C@H](C)CCCC(C)C)[C@@]4(C)CC[C@@H]32)C1)C(N)=O)[C@@H](C)CC)[C@@H](C)CC)C(C)C` [Compound 45] (Ac-WDEFDASISQVNEKINQSLEEIRKSDELLHNEAAAKK(Succinyl(4-O-cholesteryl))-NH2), the pKd at hPIV-N51 (139-189) was 3.75. Also, the pEC50 is 6.70 with hMPV A2 and 7.88 in the assay on hMPV B1.

Molecule `CC[C@H](C)[C@H](NC(=O)[C@H](CO)NC(=O)[C@H](C)NC(=O)[C@H](CC(=O)O)NC(=O)[C@H](Cc1ccccc1)NC(=O)[C@H](CCC(=O)O)NC(=O)[C@H](CC(=O)O)NC(=O)[C@H](Cc1c[nH]c2ccccc12)NC(C)=O)C(=O)N[C@@H](CCC(=O)O)C(=O)N[C@@H](CCC(=O)O)C(=O)N[C@H](C(=O)N[C@@H](CC(N)=O)C(=O)N[C@@H](CCCNC(=N)N)C(=O)N[C@@H](CCCNC(=N)N)C(=O)N[C@H](C(=O)N[C@@H](CCC(=O)O)C(=O)N[C@@H](CCC(=O)O)C(=O)N[C@@H](CO)C(=O)N[C@@H](CC(C)C)C(=O)N[C@@H](CCCNC(=N)N)C(=O)N[C@@H](CCCNC(=N)N)C(=O)N[C@H](C(=O)N[C@@H](CCC(=O)O)C(=O)N[C@@H](CCC(=O)O)C(=O)N[C@@H](CO)C(=O)N[C@@H](CC(=O)O)C(=O)N[C@@H](CCCNC(=N)N)C(=O)N[C@@H](CCCNC(=N)N)C(=O)N[C@@H](CC(C)C)C(=O)N[C@@H](CCC(=O)O)C(=O)N[C@@H](CCC(=O)O)C(=O)N[C@H](C(=O)N[C@@H](CCC(=O)O)C(=O)N[C@@H](C)C(=O)N[C@@H](C)C(=O)N[C@@H](C)C(=O)N[C@@H](CCCCN)C(=O)N[C@@H](CCCCNC(=O)CCC(=O)O[C@H]1CC[C@@]2(C)C(=CC[C@H]3[C@@H]4CC[C@H]([C@H](C)CCCC(C)C)[C@@]4(C)CC[C@@H]32)C1)C(N)=O)C(C)C)[C@@H](C)CC)[C@@H](C)CC)C(C)C` [Compound 43] (Ac-WDEFDASIEEVNRRIEESLRRIEESDRRLEEVEAAAKK(Succinyl(4-O-cholesteryl))-NH2) gave a pKd at hPIV-N51 (139-189) of 5.24. Further, the pEC50 with hMPV A2 is 7.77; in the assay on hMPV B1, 8.10.

Molecule “Ac-WDEFDASISQVNEKINQSLEEIRKSDELLHNVNALEAAAKK(Succinyl(4-O-cholesteryl))-NH2 [Compound 38]” had a pKd at hPIV-N51 (139-189) of 4.61. Further, the negative-log EC50 (pEC50) with hMPV A2 is 6.89; with hMPV B1, 7.78.

Regarding `CC[C@H](C)[C@H](NC(=O)[C@H](CCCCN)NC(=O)[C@H](CCCCN)NC(=O)[C@H](CC(C)C)NC(=O)[C@H](CO)NC(=O)[C@H](CCC(=O)O)NC(=O)[C@H](CCC(=O)O)NC(=O)[C@@H](NC(=O)[C@H](CCCCN)NC(=O)[C@H](CCCCN)NC(=O)[C@H](CC(N)=O)NC(=O)[C@@H](NC(=O)[C@H](CCC(=O)O)NC(=O)[C@H](CCC(=O)O)NC(=O)[C@@H](NC(=O)[C@H](CCCCN)NC(=O)[C@H](CCCCN)NC(=O)[C@H](CCCCN)NC(=O)[C@H](CC(=O)O)NC(=O)[C@H](Cc1ccccc1)NC(=O)[C@H](CCC(=O)O)NC(=O)[C@H](CC(=O)O)NC(C)=O)[C@@H](C)CC)C(C)C)[C@@H](C)CC)C(=O)N[C@@H](CCC(=O)O)C(=O)N[C@@H](CCC(=O)O)C(=O)N[C@@H](CO)C(=O)N[C@@H](CC(=O)O)C(=O)N[C@@H](CCCCN)C(=O)N[C@@H](CCCCN)C(=O)N[C@@H](CC(C)C)C(=O)N[C@@H](CCC(=O)O)C(=O)N[C@@H](CCC(=O)O)C(=O)N[C@H](C(=O)NCC(=O)N[C@@H](CO)C(=O)NCC(=O)N[C@@H](CO)C(=O)NCC(=O)N[C@@H](CCCCNC(=O)CCC(=O)O[C@H]1CC[C@@]2(C)C(=CC[C@H]3[C@@H]4CC[C@H]([C@H](C)CCCC(C)C)[C@@]4(C)CC[C@@H]32)C1)C(N)=O)C(C)C` [Compound 15] (Ac-DEFDKKKIEEVNKKIEESLKKIEESDKKLEEVGSGSGK(Succinyl(4-O-cholesteryl))-NH2), the pKd on hPIV-N51 (139-189) was 5.86. The values for the pEC50 in the assay with hMPV A2 and with hMPV B1 were 7.75 and 8.29, respectively.

For “Ac-LVKKIDEFDASISQVNEKINQSLEEIRKSDELLHNVGSGSGK(Succinyl(4-O-cholesteryl))-NH2 [Compound 29]”, the pKd at hPIV-N51 (139-189) is 5.76. In addition, the figures for the pEC50 with hMPV A2 and in the assay with hMPV B1 were 7.38 and 7.96, respectively.

The molecule `CC[C@H](C)[C@H](NC(=O)[C@H](CCCCN)NC(=O)[C@H](CCCCN)NC(=O)[C@H](CC(C)C)NC(=O)[C@H](CO)NC(=O)[C@H](CCC(=O)O)NC(=O)[C@H](CCC(=O)O)NC(=O)[C@@H](NC(=O)[C@H](CCCCN)NC(=O)[C@H](CCCCN)NC(=O)[C@H](CC(N)=O)NC(=O)[C@@H](NC(=O)[C@H](CCC(=O)O)NC(=O)[C@H](CCC(=O)O)NC(=O)[C@@H](NC(=O)[C@H](CCCCN)NC(=O)[C@H](CCCCN)NC(=O)[C@H](CC(=O)O)NC(=O)[C@H](Cc1ccccc1)NC(=O)[C@H](CCC(=O)O)NC(=O)[C@H](CC(=O)O)NC(=O)[C@H](Cc1c[nH]c2ccccc12)NC(C)=O)[C@@H](C)CC)C(C)C)[C@@H](C)CC)C(=O)N[C@@H](CCC(=O)O)C(=O)N[C@@H](CCC(=O)O)C(=O)N[C@@H](CO)C(=O)N[C@@H](CC(=O)O)C(=O)N[C@@H](CCCCN)C(=O)N[C@@H](CCCCN)C(=O)N[C@@H](CC(C)C)C(=O)N[C@@H](CCC(=O)O)C(=O)N[C@@H](CCC(=O)O)C(=O)N[C@H](C(=O)N[C@@H](CC(N)=O)C(=O)N[C@@H](C)C(=O)N[C@@H](CCC(=O)O)C(=O)N[C@@H](C)C(=O)N[C@@H](C)C(=O)N[C@@H](C)C(=O)N[C@@H](CCCCN)C(=O)N[C@@H](CCCCNC(=O)CCC(=O)O[C@H]1CC[C@@]2(C)C(=CC[C@H]3[C@@H]4CC[C@H]([C@H](C)CCCC(C)C)[C@@]4(C)CC[C@@H]32)C1)C(N)=O)C(C)C` [Compound 40] (Ac-WDEFDKKIEEVNKKIEESLKKIEESDKKLEEVNAEAAAKK(Succinyl(4-O-cholesteryl))-NH2) showed a pKd at hPIV-N51 (139-189) of 5.64. Also, the pEC50 in the assay on hMPV A2 was 7.86; with hMPV B1, 8.13.

By pKd is commonly meant the Kd on a negative log10 scale, so that one unit is a factor of ten. Higher therefore signals a low Kd. A word on the pEC50: it is −log10 of the EC50, conventionally taken in molar units. A higher pEC50 goes with a low EC50.

The values are drawn from US20260250325A1, “Antiviral Polypeptide Membrane Fusion Inhibitor, and Preparation Method and Application Thereof” (priority 2025, published 2026).
